Where “and” joins values, the source holds several entries; their conditions need not be identical. Equal values may be shown once. Where a name gives a salt, the structure may show the parent alone.
What was measured:
[1] = Antiischemic effect on bilateral (carotid) artery ligation model, mortality; assay type: in vivo, mice; settings: for mortality at 2 mg/kg / ED50: Mus musculus, ip; for mortality at 2 mg/kg: 24 h, 30 minutes before 5-minute bilateral carotid ligation, control mortality 70%; for mortality at 2 mg/kg / antiischemic activity, in words: 2 mg/kg i.p.; for ED50: dose diminishing the mortality by 50% in comparison to the untreated control group; for antiischemic activity, in words: bilateral artery ligation, mice
Description: 1. Antiischemic Effect (On Bilateral Artery Ligation Model)
N. Himori et al.: Cerebral ischemia model with conscious mice involvement of NMDA receptor activation and derangement of learning and memory ability [J. Pharmacol. Meth. 23, 311-327 (1990)].
Carotid arteries of mice (weighing 30 to 32 g each) were exposed bilaterally under anaesthesia by 450 mg/kg of intraperitoneal (i.p.) chloral hydrate. The sympathetic and vagal nerves were separated and a loose ligation was bilaterally placed below the carotid arteries. Both ends of the ligation were led out on the back, behind the ears. Next day, in conscious state both ends of the ligation were pulled resulting in the stopping of blood supply through the carotid arteries. This was maintained for 5 minutes, then released to provide the reperfusion. The number of animals died during the 5-minute period and the following 24 hours were registered. The calculation of significance was performed by the chi^2 test. The pre-treatment with the compound was carried out intraperitoneally (i.p.) 30 minutes before the ligation.
The transient dramatic decrease in the cerebral blood supply, then the starting of reperfusion after stopping the ligation leads to the formation of extremely toxic oxygen free radicals (superoxide radical, hydrogen peroxide). […] [ED50 is the dose (as mg/kg) diminishing the mortality by 50% in comparison to the untreated is control group].

[2] = tested on: Fe^2+ -Induced Lipid Peroxidation in Brain Homogenate; assay: Fe^2+-induced (non-enzymatic) lipid peroxidation in brain homogenate (ANI); assay type: biochemical, rat (Hannover-Wistar); settings: for IC50: Fe^2+-induced lipid peroxidation, rat brain homogenate, 37° C., 20 minutes, pH 7.4; for antioxidant activity in Fe^2+-induced lipid peroxidation, in words: comparison with idebenone, DL-α-tocopherol or silymarin
Description: Effect on the Fe^2+ -Induced Lipid Peroxidation in Brain Homogenate
After decapitating Hannover-Wistar rats weighing 150-220 g each, the whole brain was homogenized in 9 volumes of ice-cold Krebs-Ringer's buffer containing 15 mM HEPES, (4-(2-hydroxyethyl)-1-piperazinylethanesulfonic acid) (pH 7.4), 140 mM NaCl7 3.6 mM KCl, 1.5 mM CaCl2, 0.7 mM MgCl2, 1.4 mM KH2 PO4 and 10 glucose. Then the protein content of the solution was determined and adjusted to 10 mg/ml concentration.
After adding the inhibitory agent to be tested in a volume of 5 μl to 200 μl of the homogenate, the incubation mixture was incubated at 37° C. for 20 minutes. The Fe^2+ -induced lipid peroxidation was accomplished by adding 5 μl of 8 mM Fe2 (NH4)2 (SO4)2 solution. After passing of the incubation time, the reaction was stopped by adding 1 ml of a stopping solution containing 0.8 M HCl and 12.5% trichloroacetic acid, then the samples were centrifuged at 2000 g in a Janetzki K70 apparatus at 4° C. for 10 minutes.
To a 0.5 ml portion of the supernatant, 1 ml of 1% thiobarbituric acid solution was added, then the samples were placed in a water bath of 100° C. for 20 minutes. The color intensity developed was determined at 535 nm with a Hitachi 150-20 spectrophotometer by using malondialdehyde bis(diethylacetal) as reference compound.
ANI: non-enzymatically (Fe^2+) induced lipid peroxidation test

[3] = tested on: NADPH-Induced Lipid Peroxidation in Brain Microsomes; assay: NADPH-induced (enzymatic) lipid peroxidation in brain microsomes (AEI); assay type: biochemical, rat (male Hannover-Wistar); settings: for IC50: NADPH-induced lipid peroxidation, rat brain microsomes, 37° C., 20 minutes, pH 6.8; for inhibition of NADPH-induced lipid peroxidation relative to silymarin (times as strongly): compared with silymarin; for antioxidant effect in NADPH-induced lipid peroxidation, in words: comparison with reference compounds
Description: Effect on the NADPH-Induced Lipid Peroxidation in Brain Microsomes
Male Hannover-Wistar rats with a body weight of 150-250 g were used for the preparation of microsomes. After decapitation, the whole brain was removed and homogenized in a 10-fold volume of ice-cold 0.25 M saccharose solution. The homogenate was centrifuged in a Hitachi CR 26H equipment at 15000 g at 4° C. for 10 minutes, then the supernatant was collected and centrifuged in a Hitachi SCP 85H apparatus at 78000 g at 4° C. for 60 minutes. After suspending the precipitate in 0.15 M KCl solution, the protein content of the obtained solution was determined and then adjusted to 10 mg/ml concentration. The microsome thus obtained was frozen in a dry ice-acetone mixture and stored at -70° C. until use. The components of the incubation mixture were: 50 mM TRIS-HCl (pH 6.8), 0.2 mM FeCl3, 1 mM KH2 PO4, 0.5 mM ADP, 0.2 mg of microsomes as well as the compound to be tested. The incubation was carried out with a final volume of 1 ml and with an incubation time of 20 minutes at a temperature of 37° C. The lipid peroxidation was induced by adding 0.4 mM NADPH.
The formation of malondialdehyde was determined by using thiobarbituric acid. After stopping the reaction, 1 ml of 1% thiobarbituric acid solution each was weighed to the samples, which were then placed in a water bath of about 100° C. for 10 minutes. Subsequently, the samples were centrifuged at 2000 g in a Janetzki K70 apparatus at 4° C. for 10 minutes. The absorbance values of the colored supernatant were measured at 535 nm in a Hitachi 150-20 spectrophotometer. Malondialdehyde bis(diethylacetal) was used as reference compound.

[4] = Diazepam-induced anterograde amnesia (passive avoidance); assay type: in vivo, NMRI mice; settings: for Inhibition of the diazepam-induced amnesia %: 1 hour before learning, diazepam 3 mg/kg i.p.; for antiamnesic activity, in words: diazepam-induced anterograde amnesia, 0.1 and 10 mg/kg p.o.
From the text: 2. Diazepam-Induced Anterograde Amnesia C. L. Broekkamp et al.: The comparative effects of benzodiazepines, progabide and PK 9084 on acquisition of passive avoidance in mice [Psychopharmacology (Berlin) 83, 122-125 (1984)]. The memory test was accomplished on NMRI mice weighing 25 to 28 g each by using the passive avoidance, a method based on the genetically determined nyctophilic behavior of rodents. During the learning period, the pre-selected animals (mice entering the dark space from the illuminated space within 30 seconds) were placed in an illuminated space. After entering the dark space, the animal received an electric shock (1 mA for […]) onto its planta within 30 seconds, then the time until entry to the dark space (latency period) was registered. After 24 hours, the animals were placed again in the illuminated space and the time until crossing over to the dark space (retention time=T with a time limit of 300 seconds) was measured. For inducing an anterograde amnesia, the animals were treated intraperitoneally with 3 mg/kg of diazepam 30 minutes before learning. The compounds were administered orally in 0.1 or 10 mg/kg doses, respectively 1 hour before learning. [formula]

Compound | mortality at 2 mg/kg [1] | ED50 [1] | antiischemic activity, in words [1] | IC50 [2] | IC50 [3] | Inhibition of the diazepam-induced amnesia % ([4]; 0.1 mg/kg p.o.) | Inhibition of the diazepam-induced amnesia % ([4]; 10.0 mg/kg p.o.) | antioxidant activity in Fe^2+-induced lipid peroxidation, in words [2] | inhibition of NADPH-induced lipid peroxidation relative to silymarin (times as strongly) [3] | antiamnesic activity, in words [4] | antioxidant effect in NADPH-induced lipid peroxidation, in words [3]
Cc1c(C)c2c(c(C)c1O)CCC(C)(CCCC(C)CCCC(C)CCCC(C)C)O2 (racemic) [Vitamin E, 2,5,7,8-tetramethyl-2-(4',8',12'-trimethyltridecyl)-6-chromanol, reference compound] | 70% | 17.8 mg/kg | less active in the same dose | 12.1 µM | 406 µM | – | – | – | – | – | –
CC[C@@]12C=C(C(=O)OCCO)n3c4c(c5ccccc53)CCN(CCC1)[C@@H]42 [Compound 1010885, (-)-trans apovincaminic acid 2-hydroxyethyl ester(3β,16α)] | 60% | – | – | 15.5 µM | 9.7 µM | 74% | 65% | more strongly than idebenone | about 20 times | – | –
CC[C@]12C=C(C(=O)OCCOC(C)=O)n3c4c(c5ccccc53)CCN(CCC1)[C@H]42 [Compound 1010886, (+)-trans apovincaminic acid 2-(acetoxy)ethyl ester(3α,16β)hydrochloride] | – | – | – | 7.7 µM and < 10 µM | 7.6 µM and < 10 µM | 72% | 44% | about twice as active as idebenone or DL-α-tocopherol | about 20 times | particularly effective | –
CC[C@]12C=C(C(=O)OCCO)n3c4c(c5ccccc53)CCN(CCC1)[C@H]42 [Compound 1010887, (+)-trans apovincaminic acid 2-hydroxyethyl ester(3α,16β)] | – | – | – | 7.2 µM | 12.6 µM | 50% | 56% | about twice as active as idebenone or DL-α-tocopherol | about 20 times | particularly effective | –
CC[C@@]12C=C(C(=O)OCCOC(=O)c3ccccc3)n3c4c(c5ccccc53)CCN(CCC1)[C@@H]42 [Compound 1010960, (-)-trans apovincaminic acid 2-(benzoyloxy)ethyl ester(3β,16α)hydrochloride] | 10 to 30% | – | – | 5.7 µM and < 10 µM | 7.4 µM and < 10 µM | 0% | 0% | about twice as active as idebenone or DL-α-tocopherol | about 20 times | – | –
CC[C@@]12C=C(C(=O)OCCOC(=O)c3ccc(Cl)cc3)n3c4c(c5ccccc53)CCN(CCC1)[C@@H]42 [Compound 1010961, (-)-trans apovincaminic acid 2-(4-chlorobenzoyloxy)ethyl ester(3β,16α)methanesulfonate] | 60% | – | – | 5.3 µM and < 10 µM | 5.9 µM and < 10 µM | 3% | 15% | about twice as active as idebenone or DL-α-tocopherol | – | – | comparable to that of idebenone
CCC(=O)OCCOC(=O)C1=C[C@]2(CC)CCCN3CCc4c(n1c1ccccc41)[C@H]32 [Compound 1010962, (-)-trans apovincaminic acid 2-(propionyloxyethyl)ester(3β,16α)hydrochloride] | 40% | – | – | 5.7 µM and < 10 µM | 7.5 µM and < 10 µM | 16% | 4% | about twice as active as idebenone or DL-α-tocopherol | about 20 times | – | –
CC[C@@]12C=C(C(=O)OCCOC(=O)c3cc(OC)c(OC)c(OC)c3)n3c4c(c5ccccc53)CCN(CCC1)[C@@H]42 [Compound 1011005, (-)-trans apovincaminic acid 2-(3,4,5-trimethoxybenzoyloxy)-ethyl ester(3β,16α)hydrochloride] | 70% | – | – | 11.9 µM | 10.3 µM | – | – | – | about 20 times | – | –
CC[C@]12C=C(C(=O)OCCOC(=O)c3ccc(Cl)cc3)n3c4c(c5ccccc53)CCN(CCC1)[C@H]42 [Compound 1011037, (+)-trans apovincaminic acid 2-(4-chloro-benzoyloxy)-ethyl ester(3α,16β)methanesulfonate] | 50% | – | – | 11.4 µM | 3.2 µM | – | – | – | – | – | comparable to that of idebenone
CC[C@]12C=C(C(=O)OCCOC(=O)c3cc(OC)c(OC)c(OC)c3)n3c4c(c5ccccc53)CCN(CCC1)[C@H]42 [Compound 1011047, (+)-trans apovincaminic acid 2-(3,4,5-trimethoxybenzoyloxy)ethyl ester(3α,16β)] | 50% | – | – | 16.1 µM | 5.9 µM | – | – | more strongly than idebenone | – | – | comparable to that of idebenone
CC[C@@]12C=C(C(=O)OCCOC(=O)c3cccs3)n3c4c(c5ccccc53)CCN(CCC1)[C@@H]42 [Compound 2705283, (-)-trans apovincaminic acid 2-(2-thiophenoyloxi)ethyl ester(3β,16α)monohydrochloride] | – | – | – | 6.8 µM | 11.2 µM | – | – | about twice as active as idebenone or DL-α-tocopherol | about 20 times | – | –
CC[C@@]12C=C(C(=O)OCCOC(=O)c3ccc([N+](=O)[O-])cc3)n3c4c(c5ccccc53)CCN(CCC1)[C@@H]42 [Compound 2705284, (-)-trans apovincaminic acid 2-(4-nitrobenzoyloxy)ethyl ester(3β,16α)] | – | – | – | 6.8 µM | 20.4 µM | – | – | about twice as active as idebenone or DL-α-tocopherol | – | – | –
COC1=C(OC)C(=O)C(CCCCCCCCCCO)=C(C)C1=O [Idebenone, 6-(10-hydroxydecyl)-2,3-dimethoxy-5-methyl-1,4-benzoquinone, reference compound] | 40% | 4.5 mg/kg | less active in the same dose | 18.9 µM | 1.2 µM | – | – | – | – | – | –
CCOC(=O)C1=C[C@]2(CC)CCCN3CCc4c(n1c1ccccc41)[C@@H]32 [Vinpocetine, reference compound] | – | – | – | – | – | 0% | 123% | – | – | – | –
(-)-Bis-trans apovincaminic acid ethyleneglycol ester(3β,16β)dihydrochloride [Compound 1011008] | – | – | – | 21.2 µM | 6 µM | – | – | exceeded that of silymarin | – | – | comparable to that of idebenone

Reference: patent US6093720A, “Trans apovincaminic acid ester derivatives” (Richter Gedeon Vegyeszeti GmbH, priority 1995, dated 2000)
